Measurements published in patent US20240325370A1, “THERAPEUTIC REGIMENS OF A DEGRADER OF BRD9” (FOGHORN THERAPEUTICS INC., priority 2021, published 2024).

Tests used:
[1] = Interconversion between Enantiomer 1 and Enantiomer 2 in cell medium; assay type: physicochemical; settings: Enantiomer 2 dosing, cell medium 37° C.; for Mean peak area ratio of Enantiomer 1 over Enantiomer 2 peak area ratio: 0.2 µM
Protocol: For the assessment of interconversion between Enantiomer 1 and Enantiomer 2 in cell medium, the following test was performed. […] At designated time point, aliquot (50 μL) was taken and processed by the addition of 150 μL of acetonitrile containing 0.1% formic acid and internal standard for LC/MS-MS analysis. Peak areas of both Enantiomer 1 and Enantiomer 2 were determined for each sample using a chiral specific analytical method.

[2] = Plasma exposure of compound S-D1 after the last dose; assay type: in vivo, mice
Protocol: The objective of this study was to provide proof-of-concept of anti-tumor efficacy with intermittent dosing schedules for compound S-D1 by IV administration. Groups of female SYO-1 tumor-bearing NOD SCID mice (n=10/group) were dosed IV with vehicle, compound D1 or compound S-D1 for 24 days according to treatments and dosing schedules shown in Table 10. Compound D1 was formulated in 10% DMSO/40% PEG400/50% water and compound S-D1 was formulated in 20% SBECD in 5 mM citrate buffer, final pH was adjusted to 5 with 1 N NaOH. For the compound S-D1 treatment groups, plasma samples were collected at designated time points following the last dosing. Plasma samples were acidified to stabilize the compound right after collection and analyzed for compound S-D1 concentrations.

[3] = system: ASKA synovial sarcoma xenografts; experiment: ASKA synovial sarcoma xenograft efficacy; assay type: in vivo; settings: for Tumor Growth (%) on Day 21 / Tumor Size (mm^3) on Day 21: Mean ± SEM; for T/C (%) / TGI (%): Day 21
Protocol: A study was conducted to examine anti-tumor efficacy of compound S-D1 with BIW IV dosing of the racemate, compound D1, for 3 weeks utilizing a second xenograft model of human synovial sarcoma, ASKA. Vehicle (0.5% HPMC, 0.1% Tween 80 in water, pH 1.3 to 1.5), administered orally, was used as the general comparator for all test article responses (i.e., tumor growth and body weight changes). Pazopanib and ifosfamide, two agents currently used in clinic to treat synovial sarcoma patients were compared to compound D1 treatment alone. Pazopanib was administered orally at 40 mg/kg QD and ifosfamide was given IV at 80 mg/kg QD for the first 3 days (Days 0, 1, and 2) in the 3-week treatment period, mimicking the equivalent treatment regimens for both drugs in human patients.

[4] = 0.1 mg/kg BIW IV 3 weeks, ASKA xenograft
[5] = 0.5 mg/kg BIW IV 3 weeks, ASKA xenograft
[6] = 2 mg/kg BIW IV 3 weeks, ASKA xenograft
[7] = 0.5 or 2 mg/kg BIW IV, ASKA xenograft

SMILES: COc1cc(-c2cn(C)c(=O)c3cnc(N4CCC4)cc23)cc(OC)c1CN1CCC(CN2CCC3(CC2)CN(c2ccc4c(c2)C(=O)N([C@H]2CCC(=O)NC2=O)C4)C3)CC1 (single isomer, unassigned) [Compound S-D1]
- Mean peak area ratio of Enantiomer 1 over Enantiomer 2 peak area ratio ([1]; 0 h): 0.01
- Mean peak area ratio of Enantiomer 1 over Enantiomer 2 peak area ratio ([1]; 0.5 h): 0.06
- Mean peak area ratio of Enantiomer 1 over Enantiomer 2 peak area ratio ([1]; 2 h): 0.22
- Mean peak area ratio of Enantiomer 1 over Enantiomer 2 peak area ratio ([1]; 6 h): 0.60
- % Enantiomer 2 ([1]; 0 h): 99%
- % Enantiomer 2 ([1]; 0.5 h): 95%
- % Enantiomer 2 ([1]; 2 h): 82%
- % Enantiomer 2 ([1]; 6 h): 63%
- exposure in plasma versus dose ([2]; from 0.05 to […] IV): increased more than proportionally to dose
- exposure in plasma versus dose ([2]; from 0.25 to 2 mg/kg IV): slightly less than proportionally to dose

SMILES: COc1cc(-c2cn(C)c(=O)c3cnc(N4CCC4)cc23)cc(OC)c1CN1CCC(CN2CCC3(CC2)CN(c2ccc4c(c2)C(=O)N(C2CCC(=O)NC2=O)C4)C3)CC1 (racemic) [Compound D1, 3-[6-(7-[[1-([4-[6-(azetidin-1-yl)-2-methyl-1-oxo-2,7-naphthyridin-4-yl]-2,6-dimethoxyphenyl]methyl)piperidin-4-yl]methyl]-2,7-diazaspiro[3.5]nonan-2-yl)-1-oxo-3H-isoindol-2-yl]piperidine-2,6-dione]
- Tumor Growth (%) on Day 21 [3, 4]: 440 ± 46%
- Tumor Size (mm^3) on Day 21 [3, 4]: 634 ± 82 mm^3
- T/C (%) ([3]; 0.1 mg/kg BIW IV 3 weeks): 36.1%
- TGI (%) ([3]; 0.1 mg/kg BIW IV 3 weeks): 63.9%
- Tumor Growth (%) on Day 21 [3, 5]: 121 ± 13%
- Tumor Size (mm^3) on Day 21 [3, 5]: 175 ± 26 mm^3
- T/C (%) ([3]; 0.5 mg/kg BIW IV 3 weeks): 9.9%
- TGI (%) ([3]; 0.5 mg/kg BIW IV 3 weeks): 90.1%
- Tumor Growth (%) on Day 21 [3, 6]: 92 ± 6%
- Tumor Size (mm^3) on Day 21 [3, 6]: 130 ± 10 mm^3
- T/C (%) ([3]; 2 mg/kg BIW IV 3 weeks): 7.6%
- TGI (%) ([3]; 2 mg/kg BIW IV 3 weeks): 92.4%
- tumor response [3, 7]: Tumor stasis
- tumor stasis continued after the cessation of dosing [3, 7]: approximately 15 days
